Here are results for eleven compounds from patent US20260265280A1, “Prevention/Treatment of Ischemic Reperfusion Injury” (Rev Therapeutics, priority 2023, published 2026).

For data set [1], the system named is kidney ischemia-reperfusion injury. Briefly: Rat bilateral short-warm kidney ischemia-reperfusion injury (IRI / AKI) system. It is filed as in vivo, Male outbred Sprague-Dawley rats. Particulars: oral 103 mg/kg. The method, then:
Brief description of AKI Study: The study examined rats given oral compound Q8 three times at −1 hour, +10 hours, and 24 h post-lesion, or nine times over four days, at −1 hr, +10 hours and every morning and evening. The dose chosen was 103 mg/kg (0.134 mmol/kg). Control groups include a sham operation group receiving drug vehicle, peritoneum open but no ligature application to the kidney artery. A vehicle group in which the artery ligature was applied served as the lesion group. […] This chosen amount is also between the IC95 and the IC50 inhibition of Jnk activity in cell extracts and human PBMCs (Krenitsky et al. Bioorganic & Medicinal Chemistry Letters, 22(3), pp. 1433-1438). It is also similar to the oral Cavg exposure of compound Z at 60 mg/kg, which is an effective dose of compound Z in rat models of AKI (Grynberg et al. Am J Pathol 191:817-828, 2021).
Rat bilateral short-warm kidney ischemia-reperfusion injury (“IRI”) system: Male outbred Sprague-Dawley rats (approximately 300 g from the Monash Animal Research Platform), six/group, were anesthetized using ketamine/xylazine, and surgery performed with both renal pedicles clamped for 25 minutes (ischemia) then released (reperfusion) as previously described (Grynberg et al. Am J Pathol 191:817-828, 2021). […]
Staining used rabbit monoclonal antibodies recognizing collagen I (E8F4L, 1 in 400 dilutions; Cell Signaling Technology, Danvers, MA, USA), followed by biotinylated […] (BA-400, 1 in 500 dilutions; Thermo Fisher, Waltham, MA, USA), and the VECTASTAIN® Elite® ABC-HRP Kit (PK-6100). The interstitial collagen I deposition area was assessed in the outer medulla and cortex by image analysis, avoiding medium and large arteries, using cellSens software V1.18 (Olympus, Notting Hill, Victoria, Australia) as previously described (Leong et al. Toxins 13:700, 2021). […]
Statistical Analysis: Data are shown as means±1 SD. Data were analyzed by one-way analysis of variance with the Tukey multiple comparison tests using GraphPad Prism 9.0 software (GraphPad Software, San Diego, CA).

Data set [2] in a line: Thermodynamic solubility assay (shake flask, HPLC-UV) in PBS. It is filed as physicochemical. The note with it: for solubility thermodynamic at 24 h: 25 °C, aqueous buffer, thermodynamic from solid. The method, then:
Solubility Study: The thermodynamic solubility assay employed was the shake flask method followed by HPLC analysis. The method prepared a saturated solution of the compound, followed by an assay of the solution using HPLC and UV detection. […] About 18 mg compound powder was weighed and placed in a 2 mL glass vial, then PBS buffer was introduced into the vial to obtain a 30-60 mg/mL target concentration. This solution was vortexed for 2 minutes. The solutions were incubated and shook on an orbital shaker for 24 hr at room temperature (25±2° C.). About 500 μL solubility solution was transferred into a new MultiScreen filter plate (Membrane of polycarbonate), filtered by millipore vacuum manifold, and collected in the filtrate as the TS solution. The filtrate was diluted with PBS buffer by a factor of 20 fold to make it diluent. Three UV standard solutions (20, 200, 2000 μg/mL) were injected into HPLC from low to high concentration, followed by testing of the diluent. Testing samples were injected in duplicate. The filtrate was analyzed by HPLC equipped with UV, and the solubility was calculated based on acquired peak areas and dilution factors with a standard external method.

Data set [3] is described as follows: In vivo rat pharmacokinetic studies (cleavage of compounds into compound Z). The note with it: for Compound Z Present in Plasma at 2 hr After i.p. dose: i.p. dose of compound Qx.
Procedure: Rat pharmacokinetic study samples were used for PK characterization. Male Sprague-Dawley rats weighing 150-300 g were intraperitoneal (ip), intravenous (i.v.) dosed formulated in PBS, pH 7.4. The blood samples at several times post dosing were collected and advanced to plasma preparation with K2EDTA as an anticoagulant.
The blank plasma samples used for the PK characterization control were prepared from undosed rat groups. After IV administration, the amount of parent compound remaining at 0.5 hours after dosing was used as a measure of the cleavage rate. After IP administration, the amount of parent compound remaining at 2 hours after dosing was used as a measure of the cleavage rate. We sought compounds with >90% cleavage.
The test system of data set [4] is cJun phosphorylation. Particulars: human skin; cited from earlier work.
Data set [5] deals with kidney ischemia-reperfusion injury. Particulars: oral; Grynberg et al.; cited from earlier work.
[6] abbreviates: PBS buffer, PBS pH 7.4, shaken 24 hr at room temperature (25±2° C.).
The mark [7] stands for this setting: PBS pH 7.4, shaken 24 hr at room temperature (25±2° C.).
Where [8] appears, read: studied at 1 mg/kg in PBS, linearly scaled to 2 mg/kg equivalent dose.

≈ marks a conversion by molar mass, not a printed value. Where “and” joins values, the source holds several entries; their conditions need not be identical. Identical values can stand only once. Marks after values point to notes of the source that are not given here. Bounds are passed on as bounds.

`O=P([O-])([O-])OCn1/c(=N\c2c(F)cc(F)cc2F)n([C@H]2CCOC2)c2nc(NC3CCC(O)CC3)ncc21.[Na+].[Na+]` (stereo partly drawn) [Compound Q8, [[(8Z)-2-[(4-hydroxycyclohexyl)amino]-9-[(3S)-tetrahydrofuran-3-yl]-8-(2,4,6-trifluorophenyl)imino-purin-7-yl]methoxy-sodiooxy-phosphoryl]oxysodium]: the “reduction of fibrosis component Coll histological staining” value in data set [1] (D21 post-lesion) stood at 73%. Besides, the “reduction of tubular damage” value in data set [1] (Day 7 post-lesion, PAS stained sections, outer medulla) is 65%. Further, the “reduction of serum/plasma creatinine levels (kidney dysfunction)” value in data set [1] (three doses or nine doses over four days, vs. 1D vehicle) is 87-88%. In addition, the “improvement in solubility over known compound Z” value in data set [2] (PBS) is 751 fold. Also, the thermodynamic solubility at 24 h in data set [2] (setting [6]) is 45600 µg/mL. Further, the “Compound Qx Present in Plasma at 2 hr After i.p. dose” value in data set [3] (studied at 29.8 mg/kg in PBS, linearly scaled to 2 mg/kg equivalent dose) was 12^# ng/mL. In data set [3] (male, Sprague-Dawley, plasma, intravenous, 1 mg/kg), this compound registered a concentration at 0.5 h of 21 ng/mL.
The compound `O=P([O-])([O-])OP(=O)([O-])OC1CCC(Nc2ncc3nc(Nc4c(F)cc(F)cc4F)n([C@H]4CCOC4)c3n2)CC1.[Na+].[Na+].[Na+]` (stereo partly drawn) [Compound Q9, [Disodiooxyphosphoryloxy-[4-[[9-[(3S)-tetrahydrofuran-3-yl]-8-(2,4,6-trifluoroanilino)purin-2-yl]amino]cyclohexoxy]phosphoryl]oxysodium] registered a thermodynamic solubility at 24 h in data set [2] (setting [7]) of 19400 µg/mL. The “Compound Qx Present in Plasma at 2 hr After i.p. dose” value in data set [3] (studied at 2 mg/kg in PBS) is on record as “BQL”. In data set [3] (setting [8]), the “Compound Qx Present in Plasma at 0.5 hr After i.v. dose” value is “BQL”.
The compound `CC(=O)O[C@H]1CC[C@H](Nc2ncc3nc(Nc4c(F)cc(F)cc4F)n([C@H]4CCOC4)c3n2)CC1` [Compound Q10, [4-[[9-[(3S)-Tetrahydrofuran-3-yl]-8-(2,4,6-trifluoroanilino)purin-2-yl]amino]cyclohexyl] acetate] gave a solubility (thermodynamic) at 24 h in data set [2] (setting [6]) of 75.2 µg/mL.
The same measure, in the same setting: next, `CCOC(=O)n1/c(=N\c2c(F)cc(F)cc2F)n([C@H]2CCOC2)c2nc(N[C@H]3CC[C@H](O)CC3)ncc21` [Compound Q11]: under 20 µg/mL.
In data set [2] (setting [6]), `C[N+](C)(C)CCOC(=O)O[C@H]1CC[C@H](Nc2ncc3nc(Nc4c(F)cc(F)cc4F)n([C@H]4CCOC4)c3n2)CC1` [Compound Q12, trimethyl-[2-[4-[[9-[(3S)-tetrahydrofuran-3-yl]-8-(2,4,6-trifluoroanilino)purin-2-yl]amino]cyclohexoxy]carbonyloxyethyl]ammonium] had a thermodynamic solubility at 24 h of 29600 µg/mL. Moreover, the concentration at 2 h in data set [3] (male, Sprague-Dawley, plasma, ip, 2 mg/kg) was 214 ng/mL.
As for `CCOC(=O)OC1CCC(Nc2ncc3nc(Nc4c(F)cc(F)cc4F)n([C@H]4CCOC4)c3n2)CC1` (stereo partly drawn) [Compound Q13, Ethyl [4-[[9-[(3S)-tetrahydrofuran-3-yl]-8-(2,4,6-trifluoroanilino)purin-2-yl]amino]cyclohexyl] carbonate], the solubility (thermodynamic) at 24 h in data set [2] (setting [6]) was under 20 µg/mL.
The same measure, in the same setting: for `CN(C)C(=O)O[C@H]1CC[C@H](Nc2ncc3nc(Nc4c(F)cc(F)cc4F)n([C@H]4CCOC4)c3n2)CC1` [Compound Q14, [4-[[9-[(3S)-tetrahydrofuran-3-yl]-8-(2,4,6-trifluoroanilino)purin-2-yl]amino]cyclohexyl] N,N-dimethylcarbamate] the value was under 20 µg/mL; for `CC(=O)OCn1/c(=N\c2c(F)cc(F)cc2F)n([C@H]2CCOC2)c2nc(N[C@H]3CC[C@H](O)CC3)ncc21` [Compound Q16, [(8Z)-2-[(4-hydroxycyclohexyl)amino]-9-[(3S)-tetrahydrofuran-3-yl]-8-(2,4,6-trifluorophenyl)imino-purin-7-yl]methyl acetate], 114 µg/mL.
Turning to `O[C@H]1CC[C@H](Nc2ncc3nc(Nc4c(F)cc(F)cc4F)n([C@H]4CCOC4)c3n2)CC1` [Z, 4-[[9-[(3S)-tetrahydrofuran-3-yl]-8-(2,4,6-trifluoroanilino)purin-2-yl]amino]cyclohexanol], in data set [4], the “plasma concentration that achieved efficacy (suppression of cJun phosphorylation)” value is 3.4 uM and 1560 ng/mL. This compound had a thermodynamic solubility at 24 h in data set [2] (setting [6]) of 60.6 µg/mL (≈ 135 µM). For the same compound, the “effective dose in rat models of AKI” value in data set [5] is 60 mg/kg.
Consider “Trimethyl-[2-oxo-2-[4-[[9-[(3S)-tetrahydrofuran-3-yl]-8-(2,4,6-trifluoroanilino)purin-2-yl]amino]cyclohexoxy]ethyl]ammonium [Compound Q15]”, for which the “Thermodynamic Solubility in PBS” value in data set [2] (setting [7]) worked out at 17340 µg/mL. In data set [3] (studied at 2 mg/kg in PBS), the “Compound Z Present in Plasma at 2 hr After i.p. dose” value is on record as 26.5 ng/mL and the “Compound Qx Present in Plasma at 2 hr After i.p. dose” value turned out to be 125 ng/mL.
As to “[4-[[9-[(3S)-Tetrahydro furan-3-yl]-8-(2,4,6-trifluoroanilino)purin-2-yl]amino]cyclohexyl] disodium phosphate [Compound Q7]”, the “compound still present at 2 hrs post-dosing” value in data set [3] (2 hr post-dosing) is 30%. Also, in data set [3] (studied at 2 mg/kg in PBS), the “Compound Z Present in Plasma at 2 hr After i.p. dose” value is given as 83.5 ng/mL and the “Compound Qx Present in Plasma at 2 hr After i.p. dose” value turned out to be 36 ng/mL. Also, the “Compound Z Present in Plasma at 0.5 hr After i.v. dose” value in data set [3] (i.v. dose of compound Qx, studied at 1 mg/kg in PBS, linearly scaled to 2 mg/kg equivalent dose) was found to be 232 ng/mL. The “Compound Qx Present in Plasma at 0.5 hr After i.v. dose” value in data set [3] (setting [8]) was 13 ng/mL.
